Data: article PMC6212438, “Vapor detection and discrimination with a panel of odorant receptors” (Nature Communications, 2018)

Biological target: T1, Olfr1484 (Mus musculus, UniProt Q8VEU6)
T1 construct: gene Or5b122; full ORF with N-terminal Rho-tag (first 20 residues of human rhodopsin), Hana3A cells, co-expressed RTP1S
T1 sequence (Q8VEU6 1-315): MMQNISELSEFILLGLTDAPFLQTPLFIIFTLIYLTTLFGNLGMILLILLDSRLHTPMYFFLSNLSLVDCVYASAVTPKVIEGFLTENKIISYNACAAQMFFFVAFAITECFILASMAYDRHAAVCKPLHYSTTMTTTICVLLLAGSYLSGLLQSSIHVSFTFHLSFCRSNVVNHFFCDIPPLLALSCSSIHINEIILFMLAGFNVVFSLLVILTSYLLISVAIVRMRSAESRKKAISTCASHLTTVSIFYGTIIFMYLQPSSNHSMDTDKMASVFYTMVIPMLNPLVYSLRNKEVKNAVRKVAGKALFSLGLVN
Experiment: GloSensor cAMP luminescence in Hana3A cells
Format: cell-based
Conditions: agonist; vapor-phase stimulation, odorant diluted in mineral oil

How did the “GloSensor cAMP luminescence in Hana3A cells” value turn out when `O=C1CCCCC1` [cyclohexanone] was run?
Its value is “Olfr1484 to cyclohexanone (CH)”.
